Reference: article PMC8480782, “Efficient Dimerization Disruption of Leishmania infantum Trypanothione Reductase by Triazole-phenyl-thiazoles” (Journal of Medicinal Chemistry, 2021)
Entries after “also recorded” stand apart in the source; their conditions may differ. Like-named read-outs stand apart in the source and are kept apart here.

Tests used:
TbTryR = target: T1, TbTryR (Trypanosoma brucei brucei, UniProt P39051); experiment: TryR oxidoreductase activity, DTNB-coupled assay (TbTryR); type: biochemical
T1 construct: HIS; made in house; host or cells: E. coli
Description: The DNA coding sequences for Homo sapiens GR, T. brucei TryR, and T. congolense TryR were polymerase chain reaction (PCR)-amplified and cloned in the pRSETA plasmid. The DNA coding for hGR (transcript variant 1; NCBI Reference Sequence: NM_000637.5) was purchased from GeneScript. Genomic DNA from T. congolense parasites was kindly provided by Dr. Stefan Magez (University of Vrije, Brussels). Genomic DNA from the T. brucei S16 cell line was kindly provided by José M. Pérez-Victoria. Instituto de Parasitología y Biomedicina “López—Neyra” CSIC. HIS-tagged recombinant T. brucei and T. congolense TryRs (TbTryR and TcoTryR, respectively) were purified from E. coli as already explained for LiTryR.
TryR oxidoreductase activity was determined spectrophotometrically using a modified version of the DTNB-coupled assay described by Hamilton et al.[52] Briefly, reactions were carried out at 26 °C in 250 μL of N-(2-hydroxyethyl)piperazine-N′-ethanesulfonic acid (HEPES) buffer (pH 7.5, 40 mM) containing ethylenediaminetetraacetic acid (EDTA) (1 mM), NADP^+ (30 μM), DTNB (25 μM), TS2 (1 μM), NADPH (150 μM), glycerol (0.02%), DMSO (1.75%), and recombinant TryR (7 nM). […] Reactions were started by addition of a mixture of NADPH and TS2.
TryR oxidoreductase activity was monitored at 26 °C by an increase in absorbance at 412 nm in an EnSpire Multimode Plate Reader (PerkinElmer, Waltham, MA). […] (TNB) concentration was obtained by multiplying the absorbance values by 100 (50 μM TNB generates 0.5 arbitrary units of absorbance at 412 nm). In this DTNB-coupled assay, one molecule of T(SH)2 reduces one molecule of DTNB, producing two TNB molecules. All of the assays were conducted in at least three independent experiments. Data were analyzed using a nonlinear regression model with GraFit 6 software (Erithacus, Horley, Surrey, U.K.).

LiTryR = target: T2, LiTryR (Leishmania infantum, UniProt A4HSF7); experiment: Time-dependent inhibition kinetics of LiTryR (modified DTNB-coupled assay); type: biochemical; conditions: for mechanism of LiTryR inhibition: reaction progress curves / kinetic analysis; for α* (overall two-step process): fit to eq 4; for α (initial EI complex): fit to eq 3
T2 construct: HIS (N); made in house; host or cells: E. coli BL21 (DE3) Rossetta
Method: The inhibitory constants Ki and Ki* for 19a were calculated following a slightly modified version of the standard DTNB-coupled assay.[52] TS2 was serially diluted (sixfold dilution from 1666 to 52 μM) in a buffer containing 40 mM HEPES (pH 7.5) and 1 mM EDTA. The different TS2 solutions were dispensed (15 μL) in a 96-well microplate. 19a was serially diluted in DMSO (sixfold dilution from 1875 to 445 μM). […] These mixtures (180 μL) were subsequently added to the appropriate wells previously filled with different TS2 solutions. The assay was initiated by addition of 55 μL of buffer containing 40 mM HEPES (pH 7.5), 1 mM EDTA, 272.73 μM NADP^+, 0.01% glycerol, and 3.5 nM recombinant LiTryR using an automated dispensing system (PerkinElmer, Waltham, MA). The order of addition was essential to avoid enzyme preincubation with the inhibitor or the substrates. […] TryR oxidoreductase activity was monitored at 26 °C by an increase in absorbance at 412 nm in an EnSpire Multimode Plate Reader (PerkinElmer, Waltham, MA). Coupling an automated dispenser module to the spectrophotometer enabled real-time detection of the enzymatic reaction, which was crucial for high-quality nonlinear fits of the experimental data and, especially, to estimate the initial velocity of the progress curves in the presence of 19a. To guarantee linearity of the enzyme reaction in the absence of an inhibitor, the analysis was performed with data obtained during the first 20 000 s to avoid TS2 depletion. […] All of the assays were conducted in three independent experiments.
kobs values were estimated for every 19a concentration at all TS2 concentrations by fitting the values of the TNB concentration produced during each enzymatic reaction to eq 1.[42b],[53] [drawing 2] 1 where vi and vs are the initial and the steady-state velocities, respectively, kobs is the apparent first-order rate constant for the conversion of vi into the steady-state velocity (vs), and d is a parameter that indicates the displacement of the curve on the vertical ordinate and takes into account any nonzero value of the measured signal at time zero caused by some of the reagents. The apparent inhibition constants (Ki^app and Ki*^app) for each TS2 concentration were determined by fitting the kobs values obtained at different 19a concentrations to eq 2 [drawing 3] 2 where Ki^app is the apparent value of the Ki for the initial encounter complex (EI) and Ki*^app is the apparent value of the overall inhibition constant Ki* to form a higher-affinity complex (E*I). k6 is the first-order rate constant that defines the reverse isomerization step that returns E*I to EI.[42a],[53]
The Ki value for the formation of the EI complex was determined by fitting the Ki^app values obtained at different TS2 concentrations to eq 3. In addition, this graph was used to assess the inhibition modality of 19a during the first equilibrium of its two-step binding mechanism. […] In addition, this graph was used to assess the overall inhibition modality of 19a during its two-step binding mechanism. As explained above, the value obtained for α defines the mode of inhibition.[42a] [drawing 5] 4
Figure S1. […]
Lineweaver–Burk plots of reciprocal initial velocities ( vi) versus reciprocals of four TS2

[1] = read-out: IC50, oxidoreductase activity of TbTryR
[2] = fit of Ki*^app to eq 4, read-out: Ki* (overall two-step process)
[3] = two-step mechanism, fit of Ki^app to eq 3, read-out: Ki (initial EI complex)

T1 sequence (P39051 whole entry): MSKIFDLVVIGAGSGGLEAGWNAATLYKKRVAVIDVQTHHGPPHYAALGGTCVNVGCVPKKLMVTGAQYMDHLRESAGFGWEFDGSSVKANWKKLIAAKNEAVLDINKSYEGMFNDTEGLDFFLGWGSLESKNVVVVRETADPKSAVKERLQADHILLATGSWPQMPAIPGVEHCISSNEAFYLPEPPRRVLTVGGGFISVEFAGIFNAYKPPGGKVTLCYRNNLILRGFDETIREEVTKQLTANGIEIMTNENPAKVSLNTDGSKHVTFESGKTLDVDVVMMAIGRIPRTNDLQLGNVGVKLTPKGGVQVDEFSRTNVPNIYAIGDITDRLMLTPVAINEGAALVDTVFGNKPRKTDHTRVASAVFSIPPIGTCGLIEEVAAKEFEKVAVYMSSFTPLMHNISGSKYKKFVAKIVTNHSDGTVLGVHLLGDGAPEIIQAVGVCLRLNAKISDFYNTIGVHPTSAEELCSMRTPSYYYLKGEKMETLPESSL
T2 sequence (A4HSF7 1-491): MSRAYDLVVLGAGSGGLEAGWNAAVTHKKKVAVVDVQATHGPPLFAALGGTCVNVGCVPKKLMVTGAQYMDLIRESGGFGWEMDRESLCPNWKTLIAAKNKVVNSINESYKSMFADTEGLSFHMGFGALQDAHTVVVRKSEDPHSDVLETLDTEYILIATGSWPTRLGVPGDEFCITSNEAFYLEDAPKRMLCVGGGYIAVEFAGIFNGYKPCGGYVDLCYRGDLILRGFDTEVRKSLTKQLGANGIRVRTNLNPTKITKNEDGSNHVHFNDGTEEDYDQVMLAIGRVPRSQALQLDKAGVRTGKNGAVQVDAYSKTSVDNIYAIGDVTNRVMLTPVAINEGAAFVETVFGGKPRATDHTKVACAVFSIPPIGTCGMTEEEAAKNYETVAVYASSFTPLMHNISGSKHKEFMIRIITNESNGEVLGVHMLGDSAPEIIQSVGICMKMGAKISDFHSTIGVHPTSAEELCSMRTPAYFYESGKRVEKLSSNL

In the case of `NCCCCc1cn(-c2ccc(-c3nc(CCc4ccc5c(c4)CCO5)cs3)c(OCCN3CCNC3=O)c2)nn1.O=C(O)C(F)(F)F` [12r], the IC50 (TbTryR) is reported as 15 ± 2.9 µM and the “mechanism of LiTryR inhibition” value (LiTryR) is reported as “slow-binding inhibitors”.

For `NCCCCc1cn(-c2ccc(-c3nc(CCc4ccc5ccccc5c4)cs3)c(OCCN3CCNC3=O)c2)nn1.O=C(O)C(F)(F)F` [12b, 1-(2-(5-(4-(4-Ammoniumbutyl)-1H-1,2,3-triazol-1-yl)-2-(4-(2-(naphthalen-2-yl)ethyl)thiazol-2-yl)phenoxy)ethyl)imidazolidin-2-one 2,2,2-Trifluoroacetate], the IC50 (TbTryR; [1]) was 9.7 ± 2.1 µM, the Ki (LiTryR; [2]) was 2.6 ± 0.6 µM and the “α* (overall two-step process)” value (LiTryR) was 1.3 ± 0.6. The “mechanism of LiTryR inhibition” value (LiTryR) was “slow-binding inhibitors; also recorded: two-step process of enzyme isomerization”, the Ki (LiTryR; [3]) was 10 ± 2.7 µM and the “α (initial EI complex)” value (LiTryR; two-step mechanism) was 2.0 ± 1.3.

In the case of `NCCCCc1cn(-c2ccc(-c3nc(CCc4ccc(-c5ccccc5)cc4)cs3)c(OCCN3CCNC3=O)c2)nn1.O=C(O)C(F)(F)F` [12c, 1-(2-(2-(4-(2-([1,1′-Biphenyl]-4-yl)ethyl)thiazol-2-yl)-5-(4-(4-ammoniumbutyl)-1H-1,2,3-triazol-1-yl)phenoxy)ethyl)imidazolidin-2-one 2,2,2-Trifluoroacetate], the IC50 (TbTryR; [1]) is reported as 10 ± 2.5 µM and the “mechanism of LiTryR inhibition” value (LiTryR) is reported as “slow-binding inhibitors”.

`NCCCCc1cn(-c2ccc(-c3nc(CCc4ccc5oc6ccccc6c5c4)cs3)c(OCCN3CCNC3=O)c2)nn1.O=C(O)C(F)(F)F` [12s] was tested, and the “mechanism of LiTryR inhibition” value (LiTryR) was “slow-binding inhibitors”.

`NCCCCc1cn(-c2ccc(-c3nc(-c4cccc(-c5csc(-c6ccc(-n7cc(CCCCN)nn7)cc6OCCN6CCNC6=O)n5)c4)cs3)c(OCCN3CCNC3=O)c2)nn1.O=C(O)C(F)(F)F.O=C(O)C(F)(F)F` [compound 22, 1,1′-((((1,3-Phenylenebis(thiazole-4,2-diyl))bis(5-(4-(4-ammoniobutyl)-1H-1,2,3-triazol-1-yl)-2,1-phenylene))bis(oxy))bis(ethane-2,1-diyl))bis(imidazolidin-2-one)bis(2,2,2-trifluoroacetate)] showed an IC50 (TbTryR; [1]) of 1 ± 0.3 µM.

In the case of `NCCCCc1cn(-c2ccc(-c3nc(-c4ccccc4)c(-c4ccccc4)s3)c(OCCN3CCNC3=O)c2)nn1.O=C(O)C(F)(F)F` [19a, 1-(2-(5-(4-(4-Ammoniobutyl)-1H-1,2,3-triazol-1-yl)-2-(4,5-diphenylthiazol-2-yl)phenoxy)ethyl)imidazolidin-2-one 2,2,2-Trifluoroacetate], the IC50 (TbTryR; [1]) is reported as 7.3 ± 0.6 µM, the “β, noncompetitive hyperbolic inhibition mechanism” value (LiTryR; DTNB-coupled assay, initial velocities, alpha value of 1) is reported as 0.5 ± 0.1 and the Ki (LiTryR; DTNB-coupled assay, initial velocities, alpha value of 1, read-out: Ki, noncompetitive hyperbolic inhibition mechanism) is reported as 12.7 ± 3.5 µM. It also gave a Ki (LiTryR; [TS2] 3.1 μM, read-out: Ki*^app) of 0.6 ± 0.1 µM, a Ki (LiTryR; [TS2] 3.1 μM, read-out: Ki^app) of 8.9 ± 3.1 µM and a Ki (LiTryR; [TS2] 6.2 μM, read-out: Ki*^app) of 0.5 ± 0.1 µM. The Ki (LiTryR; [TS2] 6.2 μM, read-out: Ki^app) was 7.2 ± 1.7 µM, the Ki (LiTryR; [TS2] 12.5 μM, read-out: Ki*^app) was 0.5 ± 0.2 µM and the Ki (LiTryR; [TS2] 12.5 μM, read-out: Ki^app) was 5.2 ± 2.6 µM. It also gave a Ki (LiTryR; [TS2] 25 μM, read-out: Ki*^app) of 0.8 ± 0.2 µM, a Ki (LiTryR; [TS2] 25 μM, read-out: Ki^app) of 8.3 ± 3 µM and a Ki (LiTryR; [TS2] 50 μM, read-out: Ki*^app) of 1.4 ± 0.3 µM. For the same molecule, the Ki (LiTryR; [TS2] 50 μM, read-out: Ki^app) was 9.3 ± 3.2 µM, the Ki (LiTryR; [TS2] 100 μM, read-out: Ki*^app) was 1.3 ± 0.6 µM and the Ki (LiTryR; [TS2] 100 μM, read-out: Ki^app) was 5 ± 2.7 µM. For the same molecule, the Ki (LiTryR; [2]) was 0.5 ± 0.1 µM, the “α* (overall two-step process)” value (LiTryR) was 5.5 ± 2.9 and the “k6, value selected as conservative upper value” (LiTryR; fixed for fitting to eq 2) was ≤ 3 × 10^–5 s^–1. The “mechanism of LiTryR inhibition” value (LiTryR) was “slow-binding inhibitors; also recorded: nonlinear noncompetitive hyperbolic inhibition mechanism”, the Ki (LiTryR; [3]) was 7.8 ± 1.7 µM and the “α (initial EI complex)” value (LiTryR; two-step mechanism) was 0.8 ± 0.4.

With `NCCCCc1cn(-c2ccc(-c3nc(-c4ccccc4)cs3)c(OCCN3CCNC3=O)c2)nn1.O=C(O)C(F)(F)F` [12n] the IC50 (TbTryR; [1]) was 12.5 ± 1.9 µM.

In the case of `NCCCCc1cn(-c2ccc(-c3nc(CCc4ccc5c(c4)CCCN5)cs3)c(OCCN3CCNC3=O)c2)nn1.O=C(O)C(F)(F)F.O=C(O)C(F)(F)F` [12q], the “mechanism of LiTryR inhibition” value (LiTryR) is reported as “single-step binding mechanism”, the “α, reversible single-step mechanism of time-dependent inhibition” value (LiTryR; single-step mechanism (Scheme S4)) is reported as 0.3 ± 0.2 and the Ki (LiTryR; single-step mechanism (Scheme S4), read-out: Ki, reversible single-step mechanism of time-dependent inhibition) is reported as 13.6 ± 5.1 µM.
